In assay [1] the test system is human platelets (ADP-induced aggregation). The assay can be described thus: "In vitro" aggregation on human platelets (PRP), ADP-induced. The format is cell-based. The conditions noted are these: Platelet, 0.25 h, compound 10^-4 M, 37° C., 15 minutes, 2.5 uM ADP. As to the method: (§1) (Born, G.V.R., Nature 194:927 (1962)).
(§2) Citrated human blood was used, from which platelet-rich plasma (PRP) was prepared. 450 ul PRP aliquots were incubated at 37° C. with the assayed compounds at a single concentration of 10^-4 M for 15 minutes. Aggregating agents (2 ug/ml collagen and 2.5 uM ADP) were added in a 50 ul volume and the aggregation was measured as optical density decrease in the platelet suspension.

In assay [2] the test system is human platelets (collagen-induced aggregation). The assay can be described thus: "In vitro" aggregation on human platelets (PRP), collagen-induced. In kind it is cell-based. The conditions noted are these: Platelet, 0.25 h, compound 10^-4 M, 37° C., 15 minutes, 2 ug/ml collagen. The method, then:
as §1, §2

In assay [3] the test system is human platelets (ATP secretion). Nature of the assay: Releasing reaction (ATP secretion from activated platelets), simultaneous to collagen aggregation. The conditions noted are these: Platelet, 0.25 h, human PRP, compound 10^-4 M, 37° C., 15 minutes, 2 ug/ml collagen. The format is cell-based. As to the method:
as §2

For assay [4], the system named is platelet thromboembolism in mice. Nature of the assay: "In vivo" thrombosis model in the mouse (collagen + epinephrine i.v.). Details: species or system CD-1 Charles River male mice. As to conditions: suspension in 0.5% carboxymethylcellulose, one to four hours after administration, i.v. 15 ug collagen and 1.8 ug epinephrine. As to the method: (B) "IN VIVO" THROMBOSIS MODEL (DiMinno, G., Silver, M. J.; J. Pharmacol. Exptl. Ther. 225:57 (1983)).
This is a suitable method for the screening of antithrombotic agents having a primary activity on platelet thormboembolism.
CD-1 Charles River male mice weighing 30 g were used. They received and i.v. injection of 15 ug collagen and 1.8 ug epinephrine in 100 ul of isotonic solution. About the 90% of the animals died or were paralysed for more than 15 minutes.
Drugs were intraperitoneally administered as a suspension in 0.5% carboxymethylcellulose and the protecting effect thereof against thrombosis was measured one to four hours after the administration.

Here are results for 7 compounds from patent US4782069A, “1,4-Dihydropiridines and their use as antithrombotic drugs” (Alter, S.A., priority 1986, dated 1988).

Take `COC(=O)C1=C(C)NC(C)=C(C(=O)OCN2C(=O)c3ccccc3S2(=O)=O)C1C` (centres unmarked) [Example 4, {N-(1,2-benzisothiazolyl-3(2H)one-1,1-dioxide)} methyl 2,6-dimethyl-4-methyl-5-methoxycarbonyl-1,4-dihydropyridine-3-carboxylate]: the inhibition (commonly the change of the read-out against control, counted positive when it falls) at 100 µM in assay [1] amounted to 5%; in assay [2], 14%; in assay [3] it was 19%. The Protection % in assay [4] (30 mg/kg intraperitoneal) and in assay [4] (60 mg/kg intraperitoneal) was 20% each time.
Regarding `CCOC(=O)C1=C(C)NC(C)=C(C(=O)OCN2C(=O)c3ccccc3S2(=O)=O)C1C` (centres unmarked) [Example 5, {N-(1,2-benzisothiazolyl-3(2H)one-1,1-dioxide)} methyl 2,6-dimethyl-5-ethoxycarbonyl-4-methyl-1,4-dihydropyridine-3-carboxylate], the inhibition at 100 µM in assay [1] was 20%; in assay [2] it was 55%; in assay [3] it was 51%. For the same compound, the Protection % was 30% in assay [4] (30 mg/kg intraperitoneal) and 50% in assay [4] (60 mg/kg intraperitoneal).
On to `OCCN(CCO)c1nc(N2CCCCC2)c2nc(N(CCO)CCO)nc(N3CCCCC3)c2n1` [DIPYRIDAMOL, reference compound], for which the Protection % in assay [4] (30 mg/kg intraperitoneal) and in assay [4] (60 mg/kg intraperitoneal) was 30% in each case.
In the case of `CC1=C(C(=O)OCCNC(=O)c2ccccc2O)C(C)C(C(=O)OCCN2C(=O)c3ccccc3S2(=O)=O)=C(C)N1` (centres unmarked) [Example 3], the inhibition at 100 µM in assay [1] was 15%; in assay [2] it was 24%; in assay [3] it was 18%. For the same compound, the Protection % in assay [4] (30 mg/kg intraperitoneal) and in assay [4] (60 mg/kg intraperitoneal) was 62% in each case.
For the compound `CCCCC1C(C(=O)OC)=C(C)NC(C)=C1C(=O)OCCN1C(=O)c2ccccc2S1(=O)=O` (centres unmarked) [Example 6, 2-{N-(1,2-benzisothiazolyl-3(2H)one-1,1-dioxide)} ethyl 4-n-butyl-2,6-dimethyl-5-methoxycarbonyl-1,4-dihydropyridine-3-carboxylate], the inhibition at 100 µM in assay [1] is 8%; in assay [2], 15%; in assay [3], 29%. The figures for the Protection % in assay [4] (30 mg/kg intraperitoneal) and in assay [4] (60 mg/kg intraperitoneal) were 12% and 34%, respectively.
Regarding `COC(=O)C1=C(C)NC(C)=C(C(=O)OCCN2C(=O)c3ccccc3S2(=O)=O)C1C` (centres unmarked) [Example 2, 2-{N-(1,2-benzisothiazolyl-3(2H)one-1,1-dioxide)} ethyl 2,6-dimethyl-4-methyl-5-methoxycarbonyl-1,4-dihydropyridine-3-carboxylate], the inhibition at 100 µM in assay [1] amounted to 20%; in assay [2], 48%; in assay [3], 43%. In addition, the values for the Protection % in assay [4] (30 mg/kg intraperitoneal) and in assay [4] (60 mg/kg intraperitoneal) were 0% and 42%, respectively.
For `CCOC(=O)C1=C(C)NC(C)=C(C(=O)OCCN2C(=O)c3ccccc3S2(=O)=O)C1C` (centres unmarked) [Example 1, 2-{N-(1,2-benzisothiazolyl-3(2H)one-1,1-dioxide)} ethyl 2,6-dimethyl-5-ethoxycarbonyl-4-methyl-1,4-dihydropyridine-3-carboxylate], the results for the inhibition at 100 µM in assay [1], in assay [2] and in assay [3] were 12%, 84% and 80%, respectively. Moreover, the Protection % in assay [4] (30 mg/kg intraperitoneal) came to 50%; in assay [4] (60 mg/kg intraperitoneal), 70%.
